The target in one assay is T1, Neurokinin NK3 (Homo sapiens, UniProt P29371).
T1 construct: host or cells: CHO cells
T1 sequence (P29371 1-465): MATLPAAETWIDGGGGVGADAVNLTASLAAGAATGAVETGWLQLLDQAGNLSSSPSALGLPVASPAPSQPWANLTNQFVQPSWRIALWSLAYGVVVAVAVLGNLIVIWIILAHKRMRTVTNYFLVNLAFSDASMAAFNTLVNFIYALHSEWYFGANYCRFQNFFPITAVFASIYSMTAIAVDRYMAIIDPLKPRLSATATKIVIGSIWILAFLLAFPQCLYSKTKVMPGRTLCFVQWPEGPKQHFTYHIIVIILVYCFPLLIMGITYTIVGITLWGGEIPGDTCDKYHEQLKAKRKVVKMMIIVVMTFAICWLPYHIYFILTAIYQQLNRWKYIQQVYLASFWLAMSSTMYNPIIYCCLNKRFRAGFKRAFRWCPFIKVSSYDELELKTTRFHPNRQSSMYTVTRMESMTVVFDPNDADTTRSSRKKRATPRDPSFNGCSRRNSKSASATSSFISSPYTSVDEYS
The experiment in a line: functional assay, intracellular [Ca2+], CHO cells (Table S2). It counts as cell-based.

For another assay, the target named is T2, Opioid µ (MOP) (Homo sapiens, UniProt P35372).
T2 construct: host or cells: HEK-293 cells
T2 sequence (P35372 whole entry): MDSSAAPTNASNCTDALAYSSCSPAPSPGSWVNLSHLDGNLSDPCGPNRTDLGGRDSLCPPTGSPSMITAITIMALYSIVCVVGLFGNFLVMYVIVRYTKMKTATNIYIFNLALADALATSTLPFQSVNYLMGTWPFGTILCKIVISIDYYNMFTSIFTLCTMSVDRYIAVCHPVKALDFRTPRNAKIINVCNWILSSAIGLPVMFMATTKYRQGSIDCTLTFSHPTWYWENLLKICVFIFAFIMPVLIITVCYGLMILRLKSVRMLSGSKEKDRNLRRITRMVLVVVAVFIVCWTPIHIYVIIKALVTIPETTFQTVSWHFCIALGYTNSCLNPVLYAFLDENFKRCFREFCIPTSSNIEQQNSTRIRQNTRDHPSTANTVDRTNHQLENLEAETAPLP
The experiment in a line: radioligand binding (Table S2). The settings on record: [3H] DAMGO, Human recombinant HEK-293 cells.

A further assay concerns the target T3, Serotonin 5-HT1A (Homo sapiens, UniProt P08908).
T3 construct: host or cells: HEK-293 cells
The assay is described as follows: radioligand binding (Table S2). The note with it: [3H] 8-OH-DPAT, Human recombinant HEK-293 cells.

A further assay has as its target T4, Prostacyclin IP (PGI2) (Homo sapiens, UniProt P43119).
T4 construct: host or cells: HEK-293 cells
The assay is described as follows: radioligand binding (Table S2). The settings on record: [3H] Iloprost, Human recombinant HEK-293 cells.

Assay [1] has as its target T5, Vasoactive intestinal peptide VPAC1 (VIP1) (Homo sapiens, UniProt P32241).
T5 construct: host or cells: CHO cells
The assay is described as follows: radioligand binding (Table S2). The note with it: [125I] VIP, Human recombinant CHO cells.

A further assay concerns the target T6, 5-HT2A receptor (Homo sapiens, UniProt P28223).
T6 construct: other endogenously expressed receptors in the human umbilical vein; from tissue; host or cells: human umbilical vein rings
The assay is described as follows: umbilical vein, serotonin-induced contraction. The settings on record: Compound 2 10 μM; Compound 3 1 μM. The text has this:
The local ethics committee (CHU de Québec-Université Laval) had approved the project (File no. 2017-3720). Umbilical cords were obtained following elective caesarean sections; all problematic deliveries are excluded. Informed consent was obtained from the mothers. The cords were transported from the maternity ward to the laboratory in sterile Hank's balanced salt solution containing penicillin and streptomycin. Segments of umbilical veins were dissected carefully from the cords and a metal rod was inserted in the lumen. Excess connective tissue was excised and rings (2–3 mm wide) were cut. Rings of umbilical veins were suspended in 5-mL organ chambers containing oxygenated (95% O2, 5% CO2) and warmed (37°C) Krebs' solution between a metal hook and a thread loop. This solution had the following composition: NaCl 117.5 mM, KCl 4.7 mM, KH2PO4 1.2 mM, MgSO4 1.18 mM, CaCI2 2.5 mM, NaHCO3 25.0 mM, and D-glucose 5.5 mM. A baseline of one gram-weight was applied to these preparations. Changes of tension were recorded by using isometric transducers (model 52-9545, Harvard Bioscience, South Natick MA). Eight tissue baths are operated in parallel.
For this purpose, contractile responses to serotonin, acting on the 5-HT2A receptor, and U-46619, acting at the prostanoid TP receptor, were measured ([Rogines-Velo et al., 2002]; [Daray et al., 2003]).

Assay [2] deals with Potassium channel (Ca activated) SKCa channel. The experiment in a line: radioligand binding (Table S2). The settings on record: [125I] Apamin, Rat cerebral cortex.
The target in another assay is T7, Dopamine D4.2 (Homo sapiens, UniProt P21917, DEL265-296).
T7 construct: host or cells: CHO-K1 cells
T7 sequence (P21917 with tags, fused parts or gaps DEL265-296): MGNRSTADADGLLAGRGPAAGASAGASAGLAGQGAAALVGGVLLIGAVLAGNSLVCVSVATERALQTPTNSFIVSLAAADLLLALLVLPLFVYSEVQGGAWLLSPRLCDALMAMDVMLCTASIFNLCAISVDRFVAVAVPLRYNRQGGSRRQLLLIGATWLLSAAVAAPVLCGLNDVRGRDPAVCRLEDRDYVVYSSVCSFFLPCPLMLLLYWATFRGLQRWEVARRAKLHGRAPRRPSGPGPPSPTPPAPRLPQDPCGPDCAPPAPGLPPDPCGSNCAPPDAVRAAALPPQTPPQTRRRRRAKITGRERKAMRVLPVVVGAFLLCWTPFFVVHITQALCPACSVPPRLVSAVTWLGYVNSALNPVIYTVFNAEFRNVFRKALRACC
The assay is described as follows: radioligand binding (Table S2). The note with it: [3H] Spiperone, Human recombinant CHO-K1 cells.

The next assay deals with T8, dog B2 receptor (Canis lupus familiaris, UniProt Q9BDQ4).
T8 sequence (Q9BDQ4 1-392): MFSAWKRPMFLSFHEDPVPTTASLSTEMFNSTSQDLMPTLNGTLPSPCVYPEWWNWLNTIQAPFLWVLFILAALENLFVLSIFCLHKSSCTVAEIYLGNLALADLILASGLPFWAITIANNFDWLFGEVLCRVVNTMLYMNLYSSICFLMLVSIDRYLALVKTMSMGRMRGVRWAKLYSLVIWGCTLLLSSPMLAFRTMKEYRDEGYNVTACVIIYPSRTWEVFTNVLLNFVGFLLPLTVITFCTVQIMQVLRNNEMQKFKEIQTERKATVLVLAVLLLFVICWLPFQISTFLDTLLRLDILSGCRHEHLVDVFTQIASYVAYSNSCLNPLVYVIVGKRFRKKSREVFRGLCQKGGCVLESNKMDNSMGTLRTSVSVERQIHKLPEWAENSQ
The assay is described as follows: Ca^2+ mobilization assay, HEK293T cells. Format: cell-based.

Assay [3] has as its target T9, Opioid nociceptin NOP (ORL1) (Homo sapiens, UniProt P41146).
T9 construct: host or cells: HEK-293 cells
The experiment in a line: radioligand binding (Table S2). The note with it: [3H] Nociceptin, Human recombinant HEK-293 cells.

The target in a further assay is T10, Dopamine transporter (Homo sapiens, UniProt Q01959).
T10 construct: host or cells: CHO cells
T10 sequence (Q01959 whole entry): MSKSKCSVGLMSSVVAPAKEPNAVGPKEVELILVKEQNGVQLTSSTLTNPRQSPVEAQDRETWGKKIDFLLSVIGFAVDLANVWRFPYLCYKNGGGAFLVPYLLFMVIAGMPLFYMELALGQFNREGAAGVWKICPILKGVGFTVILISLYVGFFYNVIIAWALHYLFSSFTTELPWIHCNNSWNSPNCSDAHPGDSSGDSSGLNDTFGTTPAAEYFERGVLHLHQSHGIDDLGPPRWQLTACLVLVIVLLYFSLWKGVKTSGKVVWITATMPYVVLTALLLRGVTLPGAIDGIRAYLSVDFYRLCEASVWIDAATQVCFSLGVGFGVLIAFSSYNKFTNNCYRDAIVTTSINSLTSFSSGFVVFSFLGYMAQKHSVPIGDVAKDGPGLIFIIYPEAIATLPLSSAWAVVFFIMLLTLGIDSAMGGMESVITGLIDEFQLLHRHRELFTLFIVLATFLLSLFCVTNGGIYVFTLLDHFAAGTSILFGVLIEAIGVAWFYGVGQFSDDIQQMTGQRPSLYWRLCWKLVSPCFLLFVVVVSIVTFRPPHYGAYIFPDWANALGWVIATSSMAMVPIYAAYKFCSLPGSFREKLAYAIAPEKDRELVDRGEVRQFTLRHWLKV
The assay is described as follows: radioligand binding (Table S2). The settings on record: [3H] BTCP, Human recombinant CHO cells.

Another assay has as its target T11, Chemokine CCR2B (Homo sapiens, UniProt P41597).
T11 construct: host or cells: CHO-K1 cells
The experiment in a line: radioligand binding (Table S2). The settings on record: [125I] MCP-1, Human recombinant CHO-K1 cells.

The target of a further assay is T12, Monoamino-oxidase MAO-A (Rattus norvegicus, UniProt P21396).
T12 construct: Rat cerebral cortex; from tissue; host or cells: rat cerebral cortex
T12 sequence (P21396 whole entry): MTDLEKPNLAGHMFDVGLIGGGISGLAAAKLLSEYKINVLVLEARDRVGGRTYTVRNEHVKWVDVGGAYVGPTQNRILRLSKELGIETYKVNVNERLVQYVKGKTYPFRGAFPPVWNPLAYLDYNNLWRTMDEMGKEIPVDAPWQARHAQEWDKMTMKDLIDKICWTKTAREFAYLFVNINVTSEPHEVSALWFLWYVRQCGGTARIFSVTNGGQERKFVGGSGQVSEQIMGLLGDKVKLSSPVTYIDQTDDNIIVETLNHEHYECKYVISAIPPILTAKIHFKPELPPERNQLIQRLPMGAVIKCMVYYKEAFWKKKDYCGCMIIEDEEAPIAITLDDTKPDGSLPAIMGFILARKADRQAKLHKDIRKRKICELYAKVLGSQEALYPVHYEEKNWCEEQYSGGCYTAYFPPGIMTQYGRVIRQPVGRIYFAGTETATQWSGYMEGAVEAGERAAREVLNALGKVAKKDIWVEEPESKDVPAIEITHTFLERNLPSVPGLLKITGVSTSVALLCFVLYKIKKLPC
The experiment in a line: radioligand binding (Table S2). The settings on record: [3H] Ro 41-1049, Rat cerebral cortex.

Assay [4] relates to Chloride Cl- channel (GABA-gated). The experiment in a line: radioligand binding (Table S2). The settings on record: [35S] TBPS, Rat cerebral cortex.
A further assay addresses Neurotensin NT1 (Homo sapiens, UniProt P30989). The assay is described as follows: radioligand binding (Table S2). The note with it: [125I] Neurotensin, Human recombinant HEK-293 cells.
For a further assay, the target named is Motilin (Homo sapiens, UniProt O43193). The experiment in a line: radioligand binding (Table S2). The note with it: [125I] Motilin, Human recombinant CHO cells.
A further assay deals with Potassium channel KATP. The experiment in a line: radioligand binding (Table S2). The note with it: [3H] Glibenclamide, Rat cerebral cortex.

These results are taken from PMC7316994, “In Vitro Pharmacological Profile of a New Small Molecule Bradykinin B2 Receptor Antagonist” (Frontiers in Pharmacology, 2020).

The inhibition is the drop in the measured response relative to a control, in per cent. By IC50 is commonly meant the concentration that gives 50% inhibition.

T6 sequence (P28223 whole entry): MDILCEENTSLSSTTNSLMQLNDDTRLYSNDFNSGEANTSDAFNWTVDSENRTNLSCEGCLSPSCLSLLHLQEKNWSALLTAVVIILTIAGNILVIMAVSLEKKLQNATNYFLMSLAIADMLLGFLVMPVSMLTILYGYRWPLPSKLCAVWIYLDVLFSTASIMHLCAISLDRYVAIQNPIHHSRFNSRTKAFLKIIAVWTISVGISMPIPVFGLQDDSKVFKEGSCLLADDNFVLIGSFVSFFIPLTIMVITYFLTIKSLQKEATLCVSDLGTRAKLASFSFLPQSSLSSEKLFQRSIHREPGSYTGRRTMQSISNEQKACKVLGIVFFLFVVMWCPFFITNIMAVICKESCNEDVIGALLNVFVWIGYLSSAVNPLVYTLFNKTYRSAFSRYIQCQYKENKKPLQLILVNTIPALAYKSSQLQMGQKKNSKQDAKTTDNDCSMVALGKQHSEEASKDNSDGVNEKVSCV
T9 sequence (P41146 whole entry): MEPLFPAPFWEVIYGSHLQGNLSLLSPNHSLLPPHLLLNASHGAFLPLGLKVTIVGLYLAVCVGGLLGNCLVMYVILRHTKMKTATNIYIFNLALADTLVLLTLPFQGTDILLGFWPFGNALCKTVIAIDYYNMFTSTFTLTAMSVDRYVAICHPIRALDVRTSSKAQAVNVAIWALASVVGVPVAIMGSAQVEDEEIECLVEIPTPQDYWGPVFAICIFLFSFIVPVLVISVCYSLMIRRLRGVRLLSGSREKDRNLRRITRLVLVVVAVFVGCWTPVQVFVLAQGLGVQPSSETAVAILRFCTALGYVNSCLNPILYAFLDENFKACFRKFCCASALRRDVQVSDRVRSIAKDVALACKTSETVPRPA
T3 sequence (P08908 whole entry): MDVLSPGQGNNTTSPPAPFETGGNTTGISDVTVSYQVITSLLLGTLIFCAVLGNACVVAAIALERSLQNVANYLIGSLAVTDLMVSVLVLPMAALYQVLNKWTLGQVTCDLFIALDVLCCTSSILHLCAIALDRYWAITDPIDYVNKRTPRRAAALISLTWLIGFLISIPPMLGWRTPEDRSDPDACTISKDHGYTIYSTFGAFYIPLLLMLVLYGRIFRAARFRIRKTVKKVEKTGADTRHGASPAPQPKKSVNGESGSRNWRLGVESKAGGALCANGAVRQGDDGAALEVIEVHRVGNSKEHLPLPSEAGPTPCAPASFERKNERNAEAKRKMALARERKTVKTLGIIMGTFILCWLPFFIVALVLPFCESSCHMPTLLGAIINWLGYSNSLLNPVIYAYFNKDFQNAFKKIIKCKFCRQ
T5 sequence (P32241 31-457): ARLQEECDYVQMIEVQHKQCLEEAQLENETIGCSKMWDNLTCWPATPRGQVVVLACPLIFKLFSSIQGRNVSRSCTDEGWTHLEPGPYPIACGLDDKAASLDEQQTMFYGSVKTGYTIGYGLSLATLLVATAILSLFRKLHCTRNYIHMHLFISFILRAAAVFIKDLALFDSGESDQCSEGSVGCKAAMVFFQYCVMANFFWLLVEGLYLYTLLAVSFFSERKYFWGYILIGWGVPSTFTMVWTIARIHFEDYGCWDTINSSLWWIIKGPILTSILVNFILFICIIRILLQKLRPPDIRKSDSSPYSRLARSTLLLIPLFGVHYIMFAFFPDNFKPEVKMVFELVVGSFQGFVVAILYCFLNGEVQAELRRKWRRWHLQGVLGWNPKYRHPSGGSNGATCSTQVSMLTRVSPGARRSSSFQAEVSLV
T4 sequence (P43119 whole entry): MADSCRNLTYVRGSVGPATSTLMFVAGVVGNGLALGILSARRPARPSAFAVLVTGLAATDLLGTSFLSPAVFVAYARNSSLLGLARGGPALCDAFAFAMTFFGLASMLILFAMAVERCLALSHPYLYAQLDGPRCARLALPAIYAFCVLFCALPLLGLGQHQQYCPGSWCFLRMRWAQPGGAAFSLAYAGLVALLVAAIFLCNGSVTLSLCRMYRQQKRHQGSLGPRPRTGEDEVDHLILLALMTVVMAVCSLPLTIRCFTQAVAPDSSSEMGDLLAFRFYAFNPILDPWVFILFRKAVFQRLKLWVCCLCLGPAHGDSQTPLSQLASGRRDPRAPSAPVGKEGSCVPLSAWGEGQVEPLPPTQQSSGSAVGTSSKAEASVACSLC
T11 sequence (P41597 1-360 isoform P41597-2): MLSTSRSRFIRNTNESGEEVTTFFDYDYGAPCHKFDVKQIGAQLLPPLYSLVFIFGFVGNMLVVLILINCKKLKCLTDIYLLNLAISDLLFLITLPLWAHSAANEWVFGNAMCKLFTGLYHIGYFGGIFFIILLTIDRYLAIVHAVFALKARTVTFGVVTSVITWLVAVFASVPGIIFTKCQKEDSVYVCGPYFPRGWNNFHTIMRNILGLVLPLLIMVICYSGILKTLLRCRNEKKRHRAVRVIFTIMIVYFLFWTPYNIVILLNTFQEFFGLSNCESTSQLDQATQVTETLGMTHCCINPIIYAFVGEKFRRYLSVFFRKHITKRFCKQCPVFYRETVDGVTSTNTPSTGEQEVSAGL
Chain of Neurotensin NT1 (P30989 whole entry): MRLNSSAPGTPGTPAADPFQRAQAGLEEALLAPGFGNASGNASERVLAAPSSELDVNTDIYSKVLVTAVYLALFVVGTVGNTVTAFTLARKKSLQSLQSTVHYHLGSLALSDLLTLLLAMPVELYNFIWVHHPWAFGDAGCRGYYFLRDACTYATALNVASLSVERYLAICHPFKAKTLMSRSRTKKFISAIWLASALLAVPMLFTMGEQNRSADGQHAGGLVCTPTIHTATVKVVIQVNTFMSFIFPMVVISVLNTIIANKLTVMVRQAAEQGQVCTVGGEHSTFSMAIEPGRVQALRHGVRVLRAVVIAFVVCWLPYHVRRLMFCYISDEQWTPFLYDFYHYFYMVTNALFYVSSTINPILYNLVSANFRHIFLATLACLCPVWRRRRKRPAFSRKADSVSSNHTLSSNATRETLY

As for `Cc1cc(-c2ncnn2C)c2cccc(OCc3c(Cl)cc(F)cc3[C@H](C)NC(=O)COC(F)F)c2n1` [Compound 3, (S)-N-(1-(3-chloro-5-fluoro-2-((2-methyl-4-(1-methyl-1H-1,2,4-triazol-5-yl)quinolin-8-yloxy)methyl)phenyl)ethyl)-2-(difluoromethoxy)acetamide], the “% of reference agonist response @ 10 µM (agonist effect)” value on Neurokinin NK3 (10 µM, reference [MePhe7]-NKB (30 nM)) is 7.0%. Besides, the inhibition at 10 µM on Neurokinin NK3 (CHO, read-out: % inhibition of reference agonist response @ 10 µM (antagonist effect), 10 µM, [MePhe7]-NKB (1 nM)) was 40.8%; at Opioid µ (MOP), 13.6%; on Serotonin 5-HT1A, -4%; on Prostacyclin IP (PGI2), -5%; in [1] it was 0.8%; on Dopamine D4.2 it was 2%. The inhibition at 10 µM is 14.5% in assay [3]; 2.2% at Dopamine transporter; 1% on Chemokine CCR2B; -1.3% on Monoamino-oxidase MAO-A; 4% on Neurotensin NT1; 5% on Motilin. For the same compound, the IC50 was 17 µM on Neurokinin NK3 ([MePhe7]-NKB (1 nM), read-out: IC50 (µM), functional antagonism) and approximately 7.6 µM on dog B2 receptor. The Kb at Neurokinin NK3 ([MePhe7]-NKB (1 nM), read-out: Kb (µM), functional antagonism) is 1.6 µM; on dog B2 receptor, approximately 2.7 µM. In addition, the “effect on serotonin-induced contraction” value at 5-HT2A receptor is “Lack of antagonist effect”. The entries for the “% Inhibition @ 10 µM” value (in assay [2]; in [4]; in the assay with Potassium channel KATP) were 6.3%, 32.9% and 2.3%, respectively.
